The data set relates to rodent lifetime carcinogenesis bioassay, tumor incidence TD50. Kind of data set: carcinogenic potency in animals, long-term in vivo studies, CPDB compilation (AID 1745844).

Where “and” joins values, the source holds several entries; their conditions need not be identical. Equal values may be shown once. Calls of active or inactive are those of the source. No rule for the calls is given here.

On to `CC(Cl)CCl` (centres undefined), for which the TD50 runs as follows: (mouse, strain B6C3F1, females, by gavage, site: any site (literature study), lesion: several types, types named in the paper, dosed 103 weeks, study length 105 weeks) 341 mg/kg/day; (mouse, strain B6C3F1, females, by gavage, site: forestomach, lesion: squamous-cell carcinoma + squamous-cell papilloma, dosed 103 weeks, study length 105 weeks) 1020 mg/kg/day; (mouse, strain B6C3F1, females, by gavage, site: liver, lesion: hepatocellular adenoma + hepatocellular carcinoma + neoplastic nodule, dosed 103 weeks, study length 105 weeks) 346 mg/kg/day; (mouse, strain B6C3F1, females, by gavage, site: liver, lesion: hepatocellular adenoma + hepatocellular carcinoma, dosed 103 weeks, study length 105 weeks) 346 mg/kg/day; (mouse, strain B6C3F1, females, by gavage, site: liver, lesion: hepatocellular adenoma, dosed 103 weeks, study length 105 weeks) 562 mg/kg/day; (mouse, strain B6C3F1, males, by gavage, site: any site (literature study), lesion: several types, types named in the paper, dosed 103 weeks, study length 105 weeks) 397 mg/kg/day. Also, the TD50 (mouse, strain B6C3F1, males, by gavage, site: forestomach, lesion: squamous-cell papilloma, dosed 103 weeks, study length 105 weeks) was found to be 1520 mg/kg/day; the TD50 (mouse, strain B6C3F1, males, by gavage, site: liver, lesion: hepatocellular adenoma + hepatocellular carcinoma + neoplastic nodule, dosed 103 weeks, study length 105 weeks) is 229 mg/kg/day; the TD50 (mouse, strain B6C3F1, males, by gavage, site: liver, lesion: hepatocellular adenoma + hepatocellular carcinoma, dosed 103 weeks, study length 105 weeks) is 229 mg/kg/day; the TD50 (mouse, strain B6C3F1, males, by gavage, site: liver, lesion: hepatocellular adenoma, dosed 103 weeks, study length 105 weeks) was 384 mg/kg/day; the TD50 (mouse, strain B6C3F1, males, by gavage, site: lung, lesion: alveolar/bronchiolar adenoma + alveolar/bronchiolar carcinoma, dosed 103 weeks, study length 105 weeks) is 5070 mg/kg/day; the TD50 (rat, strain Fischer 344, females, by gavage, site: any site (literature study), lesion: several types, types named in the paper, dosed 103 weeks, study length 105 weeks) worked out at 240 mg/kg/day. The TD50 is 767 mg/kg/day (rat, strain Fischer 344, females, by gavage, site: mammary gland, lesion: adenocarcinoma, NOS, dosed 103 weeks, study length 105 weeks); 69.7 mg/kg/day (inactive) (rat, strain Fischer 344, males, by gavage, site: any site (literature study), lesion: several types, types named in the paper, dosed 103 weeks, study length 106 weeks); 2570 mg/kg/day (rat, strain Fischer 344, males, by gavage, site: liver, lesion: hepatocellular adenoma + hepatocellular carcinoma + neoplastic nodule, dosed 103 weeks, study length 106 weeks).
On to `NNC(=O)c1cccnc1`, for which the carcinogen call reads like this: (mouse, strain Swiss albino, females, in drinking water, site: liver, lesion: angioma, dosed 102 weeks, study length 102 weeks) “negative (inactive)”; (mouse, strain Swiss albino, females, in drinking water, site: liver, lesion: angiosarcoma, dosed 102 weeks, study length 102 weeks) “negative (inactive)”; (mouse, strain Swiss albino, males, in drinking water, site: liver, lesion: angioma, dosed 101 weeks, study length 101 weeks) “negative (inactive)”; (mouse, strain Swiss albino, males, in drinking water, site: liver, lesion: angiosarcoma, dosed 101 weeks, study length 101 weeks) “negative (inactive)”. In addition, the TD50 is 511 mg/kg/day (mouse, strain Swiss albino, females, in drinking water, site: lung, lesion: adenocarcinoma, dosed 102 weeks, study length 102 weeks); 181 mg/kg/day (mouse, strain Swiss albino, females, in drinking water, site: lung, lesion: adenoma, dosed 102 weeks, study length 102 weeks); 145 mg/kg/day (mouse, strain Swiss albino, females, in drinking water, site: lung, lesion: several types, types named in the paper, dosed 102 weeks, study length 102 weeks); 1410 mg/kg/day (inactive) (mouse, strain Swiss albino, males, in drinking water, site: liver, lesion: hepatoma, dosed 101 weeks, study length 101 weeks); 428 mg/kg/day (mouse, strain Swiss albino, males, in drinking water, site: lung, lesion: adenoma, dosed 101 weeks, study length 101 weeks); 528 mg/kg/day (mouse, strain Swiss albino, males, in drinking water, site: lung, lesion: several types, types named in the paper, dosed 101 weeks, study length 101 weeks).
As for `C/C=C/C=O`, the TD50 by setting is: (rat, strain Charles River, males, in drinking water, site: liver, lesion: neoplastic nodule, dosed 113 weeks, study length 113 weeks) 4.2 mg/kg/day; (rat, strain Charles River, males, in drinking water, site: liver, lesion: several types, types named in the paper, dosed 113 weeks, study length 113 weeks) 4.2 mg/kg/day.
As to `CCCCCCC(=O)C/C=C/CCCCCCCC(=O)OC`, the TD50 (mouse, strain ST/a, both sexes, in feed, site: all sites, lesion: malignant lymphoma, dosed 42 weeks, study length 84 weeks) was 2940 mg/kg/day (inactive).
With `O=NN1CCOC1=O`, the TD50 was 0.335 mg/kg/day (rat, strain MRC-Wistar, males, in drinking water, site: any site (literature study), lesion: one or several types, types not named, dosed 70 weeks, study length 70 weeks); 0.729 mg/kg/day (rat, strain MRC-Wistar, males, in drinking water, site: intestine, lesion: several types, types named in the paper, dosed 70 weeks, study length 70 weeks); 0.582 mg/kg/day (rat, strain MRC-Wistar, males, in drinking water, site: liver, lesion: several types, types named in the paper, dosed 64 weeks, study length 64 weeks); 1.15 mg/kg/day (rat, strain MRC-Wistar, males, in drinking water, site: liver, lesion: several types, types named in the paper, dosed 70 weeks, study length 70 weeks). Under “rat, strain MRC-Wistar, males, in drinking water, site: intestine, lesion: several types, types named in the paper, dosed 64 weeks, study length 64 weeks”, the carcinogen call is “positive”.
For `CSCCC(N)C(=O)O` (centres undefined), the TD50 reads like this: (mouse, strain C3H/HeN, males, in feed, site: liver, lesion: hepatocellular adenoma, dosed 52 weeks, study length 52 weeks) 4160 mg/kg/day; (mouse, strain C3H/HeN, males, in feed, site: liver, lesion: hepatocellular carcinoma, dosed 52 weeks, study length 52 weeks) 4470 mg/kg/day; (mouse, strain C3H/HeN, males, in feed, site: liver, lesion: several types, types named in the paper, dosed 52 weeks, study length 52 weeks) 2000 mg/kg/day. For the same compound, the carcinogen call (rat, strain Fischer 344, males, in feed, site: liver, lesion: neoplastic nodule, dosed 72 weeks, study length 103 weeks) was “negative (inactive)”.
As for `Brc1cc(Br)c2cccnc2c1`, the carcinogen call (rat, strain Fischer 344, females, in feed, site: liver, lesion: hyperplastic nodule, dosed 104 weeks, study length 104 weeks) is “negative (inactive)”. Besides, the TD50 is 754 mg/kg/day (inactive) (rat, strain Fischer 344, males, in feed, site: liver, lesion: hyperplastic nodule, dosed 104 weeks, study length 104 weeks) and 69.4 mg/kg/day (inactive) (rat, strain Fischer 344, males, in feed, site: testis, lesion: interstitial-cell tumor, dosed 104 weeks, study length 104 weeks).
On to `O=C1CCc2ccccc2O1`, for which the TD50 (mouse, strain B6C3F1, females, by gavage, site: all sites, lesion: hemangioma + hemangiosarcoma, dosed 103 weeks, study length 104 weeks) worked out at 4810 mg/kg/day; the TD50 (mouse, strain B6C3F1, females, by gavage, site: all sites, lesion: hemangiosarcoma, dosed 103 weeks, study length 104 weeks) worked out at 6140 mg/kg/day; the TD50 (mouse, strain B6C3F1, females, by gavage, site: any site (literature study), lesion: several types, types named in the paper, dosed 103 weeks, study length 104 weeks) stood at 541 mg/kg/day; the TD50 (mouse, strain B6C3F1, females, by gavage, site: liver, lesion: hepatocellular adenoma + hepatoblastoma + hepatocellular carcinoma, dosed 103 weeks, study length 104 weeks) worked out at 723 mg/kg/day; the TD50 (mouse, strain B6C3F1, females, by gavage, site: liver, lesion: hepatocellular adenoma + hepatocellular carcinoma, dosed 103 weeks, study length 104 weeks) is 723 mg/kg/day; the TD50 (mouse, strain B6C3F1, females, by gavage, site: liver, lesion: hepatocellular adenoma, dosed 103 weeks, study length 104 weeks) is 790 mg/kg/day. Besides, the TD50 by setting is: (mouse, strain B6C3F1, females, by gavage, site: lung, lesion: alveolar/bronchiolar adenoma + alveolar/bronchiolar carcinoma, dosed 103 weeks, study length 104 weeks) 96100 mg/kg/day; (mouse, strain B6C3F1, males, by gavage, site: all sites, lesion: histiocytic sarcoma + malignant lymphoma, histiocytic type + malignant lymphoma, lymphocytic type + malignant lymphoma, dosed 103 weeks, study length 104 weeks) 3320 mg/kg/day; (mouse, strain B6C3F1, males, by gavage, site: all sites, lesion: malignant lymphoma, histiocytic type + malignant lymphoma, mixed type + malignant lymphoma, lymphocytic type + malignant lymph, dosed 103 weeks, study length 104 weeks) 3780 mg/kg/day (inactive); (mouse, strain B6C3F1, males, by gavage, site: any site (literature study), lesion: several types, types named in the paper, dosed 103 weeks, study length 104 weeks) 1400 mg/kg/day; (mouse, strain B6C3F1, males, by gavage, site: liver, lesion: hepatocellular adenoma + hepatoblastoma + hepatocellular carcinoma, dosed 103 weeks, study length 104 weeks) 2890 mg/kg/day; (mouse, strain B6C3F1, males, by gavage, site: lung, lesion: alveolar/bronchiolar adenoma + alveolar/bronchiolar carcinoma, dosed 103 weeks, study length 104 weeks) 3260 mg/kg/day. The TD50 by setting is: (mouse, strain B6C3F1, males, by gavage, site: lung, lesion: alveolar/bronchiolar adenoma, dosed 103 weeks, study length 104 weeks) 596 mg/kg/day; (rat, strain Fischer 344, females, by gavage, site: adrenal medulla, lesion: pheochromocytoma benign, bilateral + pheochromocytoma, benign, dosed 103 weeks, study length 104 weeks) 538 mg/kg/day (inactive); (rat, strain Fischer 344, females, by gavage, site: any site (literature study), lesion: several types, types named in the paper, dosed 103 weeks, study length 104 weeks) 3180 mg/kg/day; (rat, strain Fischer 344, males, by gavage, site: any site (literature study), lesion: several types, types named in the paper, dosed 38 weeks, study length 104 weeks) 1370 mg/kg/day; (rat, strain Fischer 344, males, by gavage, site: any site (literature study), lesion: several types, types named in the paper, dosed 64 weeks, study length 104 weeks) 186 mg/kg/day; (rat, strain Fischer 344, males, by gavage, site: any site (literature study), lesion: several types, types named in the paper, dosed 103 weeks, study length 104 weeks) 143 mg/kg/day. Further, the TD50 (rat, strain Fischer 344, males, by gavage, site: kidney, lesion: transitional-cell carcinoma, dosed 103 weeks, study length 104 weeks) stood at 11800 mg/kg/day; the TD50 (rat, strain Fischer 344, males, by gavage, site: kidney, lesion: tubule adenoma, dosed 38 weeks, study length 104 weeks) is 310 mg/kg/day; the TD50 (rat, strain Fischer 344, males, by gavage, site: kidney, lesion: tubule adenoma, dosed 64 weeks, study length 104 weeks) came out at 408 mg/kg/day; the TD50 (rat, strain Fischer 344, males, by gavage, site: kidney, lesion: tubule adenoma, dosed 103 weeks, study length 104 weeks) is 3870 mg/kg/day and 2970 mg/kg/day; the TD50 (rat, strain Fischer 344, males, by gavage, site: liver, lesion: hepatocellular adenoma + hepatoblastoma + hepatocellular carcinoma, dosed 38 weeks, study length 104 weeks) came out at 819 mg/kg/day; the TD50 (rat, strain Fischer 344, males, by gavage, site: liver, lesion: hepatocellular adenoma + hepatoblastoma + hepatocellular carcinoma, dosed 103 weeks, study length 104 weeks) is 1380 mg/kg/day. Also, the TD50 was found to be 258 mg/kg/day (rat, strain Fischer 344, males, by gavage, site: skin, lesion: basal-cell adenoma + keratoacanthoma + squamous-cell papilloma, dosed 64 weeks, study length 104 weeks); 378 mg/kg/day (rat, strain Fischer 344, males, by gavage, site: skin, lesion: basal-cell adenoma, dosed 64 weeks, study length 104 weeks); 403 mg/kg/day (rat, strain Fischer 344, males, by gavage, site: skin, lesion: fibroma, dosed 64 weeks, study length 104 weeks); 51.7 mg/kg/day (rat, strain Fischer 344, males, by gavage, site: testis, lesion: interstitial-cell adenoma, dosed 64 weeks, study length 104 weeks); 70.6 mg/kg/day (rat, strain Fischer 344, males, by gavage, site: testis, lesion: interstitial-cell adenoma, dosed 103 weeks, study length 104 weeks).

For orientation: TD50 means the dose at which the toxic effect under study appears in half of the subjects.

For the origin of these results see PubChem BioAssay AID1745844 (Carcinogenic Potency Database (CPDB), 2022).
